Source: paper PMC8893300, “A Dynamic Mass Redistribution Assay for the Human Sweet Taste Receptor Uncovers G-Protein Dependent Biased Ligands” (Frontiers in Pharmacology, 2022)

Tested on: human sweet taste receptor (hT1R2/hT1R3) coupled to Gα16gust25
Assay: FLIPR calcium mobilization assay, R2/R3 Gα16gust25 U2OS cells
Format: cell-based
Conditions: for ΔlogR FLIPR Mean: FLIPR-Gα16gust25, operational model, logR minus sucralose logR; for ΔΔlogR Mean: ΔlogR FLIPR-Gα16gust25 minus ΔlogR DMR
Procedure: The R2/R3 U2OS clone produced above was subsequently transfected with a linearized plasmid encoding Gα16gust25 in pcDNA3-neo. Transfected cells surviving triple selection in growth medium containing 0.5 μg/ml Puromycin (for hT1R2 expression), 100 μg/ml zeocin (for hT1R3 expression) and 500 μg/ml geneticin (Gα16gust25 expression) were diluted at various densities to obtain isolated colonies. Individual colonies were expanded, and the presence of functional human sweet receptor and G protein was evaluated in a FLIPR assay using sucralose as the agonist. Selected colonies were further evaluated with a larger panel of agonists. One clone, called L1F2, was used for this study.
Cells were gently mixed with the virus at a multiplicity of infection (MOI) of 5. Using a multidrop, 70 μl per well of the cell and virus mixture was dispensed in a 384-well clear bottom plate (Fisher). After 24 h of incubation in a humidified 37°C tissue culture incubator, trichostatin A was added to a final concentration of 0.3 μM and the cells were incubated for another 18–24 h at 34°C. On the day of the experiment, cells were loaded with 4 μM of the calcium indicator Fluo-4 AM (Invitrogen) in D-PBS for 1 h at room temperature. After washing the cells with D-PBS using a cell washer (BioTek) and a 30-minute rest time, the cell plate and the compound plate were transferred into the FLIPR-Tetra (Molecular Devices). Imaging and data analysis was performed as described ([Servant et al., 2010]). Alternatively, R2/R3 Gα16gust25 U2OS cells were re-suspended at a final density of 2.25 × 10^5 viable cells per mL and the mixture was dispensed in a 384-well clear bottom plate (Fisher) at 80 μl per well. Loading and the FLIPR assay were run as described above. When indicated, data for agonist dose-responses were normalized to data obtained with a maximum concentration of sucralose (1 mM) and then fitted and plotted using GraphPad Prism (San Diego, CA) and non-linear regression analysis.
To visualize and assess bias between the two different cell-based assays, we used bias plotting as described ([Drake et al., 2008]; [Peters and Scott, 2009]; [Gregory et al., 2010]; [Thomsen et al., 2012]; [Kenakin, 2015]; [Montero-Melendez et al., 2015]). To calculate relative potency bias between the two assays, we calculated a ratio of the negative logarithm of the EC50 (in M) of each agonist to that of sucralose (a sucralose dose-response was performed as a control on the same day) as described: pEC50 compound X–pEC50 sucralose. This value, that we termed pEC50Ratio (sucralose) or pEC50R (sucralose), was calculated with EC50 values obtained in the two assay systems. This transformation also allowed determination of an average and a standard error for the pEC50R (sucralose). The two sets of data (DMR and FLIPR data) were then analyzed with an un-paired t-test (α = 0.05). To calculate relative efficacy bias between the two assays, we captured the top asymptote value from each activity-normalized dose-response curve, as provided by the curve fit, calculated an average and a standard deviation (sd) for each agonist and then analyzed the data pairs with an un-paired t-test (α = 0.05). Assay bias was also estimated using an operational model ([Kenakin et al., 2012]; [Nagi and Pineyro, 2016]). The following steps were followed: 1) Using the PRISM software, we re-analyzed each ligand’s dose-response data obtained in each assay with non-linear regression and the users-defined equation “New Operational Model with TauKa ratios” and retrieved logR values from the fits.

Compound | ΔlogR FLIPR Mean | ΔΔlogR Mean
COC(=O)[C@H](Cc1ccccc1)NC(=O)[C@H](CC(=O)O)NCCC(C)(C)C [Neotame] | 1.52 | 0.36
CC(C)Oc1ccc(NC(=S)NCc2cccs2)cc1 [S5227] | 1.73 | −0.12
CC(C)Oc1ccc(NC(=S)NCc2ccc[nH]2)cc1 [S819] | 2.40 | −0.13
